One data set has as its system Heroin SA-trained rats. Nature of the data set: Heroin self-administration model. The conditions noted are these: treated daily during 21 days of abstinence, 3 mg/kg i.p., vs vehicle. It counts as in vivo, rat. The protocol:
In the heroin SA model, rats were surgically implanted with a catheter that connects to their heart. […] They learned to press an active lever to get an infusion of heroin through their implanted tube. […] Heroin SA-trained rats underwent 21 days of abstinence after training. […] Heroin-seeking behaviors were assessed before and after the abstinence period.

The target in data set [1] is T1, human CB2R (Homo sapiens, UniProt P34972). Nature of the data set: PathHunter β-Arrestin assay, beta-arrestin recruitment. It counts as cell-based. The settings on record: for Activation of beta-arrestin pathway (in words): hCB2, CP-55940 as control. The procedure:
The assay was performed using the PathHunter β-Arrestin human CB2 cell line (catalog no. 93-0706C2) and using the PathHunter® β-Arrestin Assay for GPCR Cell Lines (source: DiscoveRx, Fremont, CA, USA), according to the manufacturer's protocol (https://www.discoverx.com/tools-resources/document-resource-library/documents/user-manual-pathhunter-% CE % B2-arrestin-assay-for-gpcr-c). Briefly, cells were seeded at a density of 10,000 cells per well in a 96-well plate and incubated overnight (16-18 h) in a humidified atmosphere at 37° C. and 5% C02. Agonist prepared in PBS was added and the assay plate incubated for 3 h in a humidified atmosphere at 37° C. and 5% C02. Working detection solution was added and the plate was incubated for 1 h in the dark at room temperature. Chemiluminescence was measured on an CLARIOstar plate reader (BMG LABTECH Inc., Cary, NC, USA).
Background: Arrestin recruitment assays detect the binding of arrestin to an activated receptor.

The next data set deals with heroin-addicted mice. Nature of the data set: Naloxone-precipitated withdrawal model. It counts as in vivo, mouse. The conditions noted are these: 3 mg/kg i.p., jumping 1 minute after naloxone 50 mg/kg. The protocol:
The naloxone-precipitated withdrawal model uses an opioid receptor antagonist, naloxone, to trigger highly aversive withdrawal symptoms (e.g., jumping, burrowing, “wet-dog” shakes, hyperreactivity) in heroin-addicted mice. Signs such as jumping can be quantified after administration of naloxone (“naloxone precipitated withdrawal”). […] On Day 7, 60 minutes after a final drug and heroin dose (40 mg/kg), naloxone was administered (50 mg/kg), and jump count measured for 1-15 minutes.

Data set [2] addresses T1, human CB2R. Nature of the data set: cAMP Hunter eXpress GPCR assay, human CB2: inhibition of forskolin-stimulated cAMP in CHO cells. It counts as cell-based. Also on record: host or cells: CHO cells. The procedure:
Briefly, cAMP Hunter eXpress Cells were seeded 18-24 h prior to the in a 96-well tissue culture treated assay plate and incubated in 5% CO2 at 37° C. in a humidified incubator. After removal of cell media, agonist compound and forskolin prepared in cell assay buffer was added and incubated at 37° C. The CB1 cAMP assay was stimulated with 20 μM final concentration of forskolin with 40 minutes incubation time. The CB2 cAMP assay was stimulated with 25 μM final concentration of forskolin with 35 minutes incubation time. The assay was stopped by incubation with antibody and working solution for 1 h at room temperature. After over 3 h incubation at room temperature in the dark with enzyme acceptor solution, chemiluminescence was measured on a CLARIOstar plate reader (BMG LABTECH Inc., Cary, NC, USA).

For another data set, the system named is Male C57Bl6J mice. Nature of the data set: Spontaneous locomotor activity in activity chamber. It counts as in vivo, mouse. The conditions noted are these: mouse, in vivo, ip.
Data set [3] deals with mice dosed with LPS and ATP. As to the kind of experiment: LPS model of systemic inflammation, Luminex cytokines in plasma and brain homogenate. It counts as in vivo, mouse. The settings on record: 0.5 mg/kg ip daily for 10 days, LPS 100 ug/kg ip, ATP 50 mg/kg ip. The protocol: Mice were dosed with Compound 24 (0.5 mg/kg ip) or vehicle daily for 10 days. Lipopolysaccharide (LPS) (100 ug/kg ip) was given 1 hour after 10th dose on final day. ATP (50 mg/kg ip) was given 2 hours after LPS and then mice were sacrificed 30 minutes after ATP (2.5 hours after LPS). Multiplex tissue cytokines were analyzed in plasma and brain homogenate from all brain regions dissected above using a Luminex 38-plex mouse cytokine assay as previously described for aged versus young mice (Evans et al. Neurobiol Aging 2021; 106:241-56). The Luminex assay was performed according to the manufacturer's instructions. Briefly, tissue samples were homogenized in RIPA buffer containing proteinase inhibitor by pulling tissue through a 23 g needle (15×) and then sonicating for 3×3 second pulses. Homogenate was spun at 14,000 g for 10 minutes, and protein concentrations were determined by the Pierce BCA assay. Samples were diluted to a common concentration of 6 μg/μL. Plasma samples were diluted 1:3. Plasma and brain homogenate samples were run in duplicate on a 96 well plate alongside standard curve and quality control calibration samples.

Data set [4] deals with Male C57BL/6J mice brain tissue. Nature of the data set: Brain cytokine gene expression (TaqMan qPCR). It counts as in vivo, mouse. The conditions noted are these: 0.1 and 0.3 mg/kg or 1, 2, and 3 mg/kg. The procedure:
Male C57BL/6J mice, 6-8 weeks old were dosed on Day 1,2,3,4,5, and 10, or 11 with vehicle or CBS-159 at 0.1 and 0.3 mg/kg or 1, 2, and 3 mg/kg. Mice were terminated on Day 10 or 11, 3.5 hours after dosing vehicle or CBS-159. Total RNA was isolated from brain tissue dissections using the RNeasy Lipid Tissue Mini Kit (Qiagen) (see Evans et al. Neurobiol. Dis. 2020, 146:105089). One microgram of total RNA was transcribed into cDNA (Superscript III, Invitrogen). PCR was performed in triplicate using TaqMan gene expression master mix (Applied Bio-systems) and validated TaqMan gene expression assays, Tnfa (Mm00443258_m1), IL1β (Mm00434228_m1), IL6 (Mm00446190_m1),), IL18 (Mm00434226_m1), and glyceraldehyde-3-phosphate dehydrogenase (Gapdh; Mm99999915_g1). Amplification was performed using a StepOnePlus system (Applied Biosystems). Fold changes of expression relative to control were determined after normalization to Gapdh. Relative quantification and old change were calculated by the comparative CT method (Schmittgen and Livak, Nat. Protoc. 2008, 3(6):1101-1108).
(In general: Real-time PCR tracks product formation cycle by cycle.)

Where [5] appears, read: cAMP assay, CP-55940 as full agonist control.

“Also recorded” adds a separate entry of the source.

T1 sequence (P34972 whole entry): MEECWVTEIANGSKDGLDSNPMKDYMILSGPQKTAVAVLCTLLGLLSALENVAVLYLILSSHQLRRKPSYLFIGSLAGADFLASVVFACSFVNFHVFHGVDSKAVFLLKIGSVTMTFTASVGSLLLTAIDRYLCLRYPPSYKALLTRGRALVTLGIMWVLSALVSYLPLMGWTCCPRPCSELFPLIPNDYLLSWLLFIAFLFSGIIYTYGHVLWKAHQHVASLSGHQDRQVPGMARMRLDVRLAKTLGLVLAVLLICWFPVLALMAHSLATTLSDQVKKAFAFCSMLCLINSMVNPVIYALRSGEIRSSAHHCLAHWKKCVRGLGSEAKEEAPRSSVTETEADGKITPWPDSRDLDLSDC

Broadly, the melting point is the temperature, or range, at which the solid turns liquid. `CC(C)(C)c1cc(NC(=O)N2CCCN2c2ccc(C(F)(F)F)cn2)on1` [Compound 3, N-(3-(tert-butyl)isoxazol-5-yl)-2-(5-(trifluoromethyl)pyridin-2-yl)pyrazolidine-1-carboxamide] showed a melting point of 184 to 188 °C.
`Cc1nc(N2CCN(C)CC2)c2nc(-c3ccccc3Cl)n(C3CCOCC3)c2n1` [LY2828360, reference compound]: in the data set with Heroin SA-trained rats, the Abstinence-induced heroin seeking entry is recorded as “less abstinence-induced heroin seeking than the vehicle-treated rats”. The “Activation of beta-arrestin pathway (in words)” value (shortened to “Activation”) on human CB2R [1] is given as “weakly/partially activates the beta-arrestin pathway”. Also, the results for the Emax on human CB2R [1] (read-out: CB2 Maximum Activation) and at human CB2R [2] (CHO; read-out: CB2 Maximum Activation) were 51.7% and 52.6%, respectively. Also, the “Negative effects of heroin withdrawal (jumping behavior after naloxone)” value in the data set on heroin-addicted mice is listed as “reduce the negative effects of heroin withdrawal”.
As a reminder, the EC50 is the concentration needed to bring the measured effect to its halfway point. `CC(C)(C)c1cc(NC(=O)N2CCCN2c2ccc(C(F)(F)F)cc2)on1` [Compound 11, N-(3-(tert-butyl)isoxazol-5-yl)-2-(4-(trifluoromethyl)phenyl)pyrazolidine-1-carboxamide] yielded a melting point of 211 to 215 °C. Further, on human CB2R [1], the concentration for a half-maximal effect (EC50) was above 1000 nM and the “Activation” value is on record as “weakly/partially activates the beta-arrestin pathway”. Also, the Emax on human CB2R [1] (read-out: B-arrestin Maximum Activation) was 35.5%. The Emax on human CB2R [2] (CHO, read-out: CB2 Maximum Activation) was found to be 114%. At human CB2R [2] (Table 3; cAMP assay, 25 μM forskolin, 35 minutes; read-out: CB2 EC50), the EC50 stood at 75.2 nM. For the same compound, on human CB2R [2] (setting [5]), the “CB2 agonist character (in words)” value is “full agonist”. In addition, on human CB2R [2] (cAMP assays hCB1 vs hCB2), the “Selectivity for CB2 over CB1 (in words)” value is recorded as “selective for CB2 over CB1”.
Compound `CC(C)(C)c1cc(NC(=O)N2CCCN2c2ccc(F)cc2)on1` [Compound 21, N-(3-(tert-butyl)isoxazol-5-yl)-2-(4-fluorophenyl)pyrazolidine-1-carboxamide] came in with a melting point of 190 to 194 °C.
In the case of `Cc1cc2c(nc(-c3ccccc3Cl)n2C2CCOCC2)c(N2CCN(C)CC2)n1` [Compound 2, 2-(2-chlorophenyl)-6-methyl-4-(4-methylpiperazin-1-yl)-1-(tetrahydro-2H-pyran-4-yl)-1H-imidazo[4,5-c]pyridine], the melting point is 248 to 252 °C.
For the compound `CC(C)(CO)c1cc(NC(=O)N2CCCN2c2ccc(C(F)(F)F)cn2)on1` [Compound 24, N-(3-(1-hydroxy-2-methylpropan-2-yl)isoxazol-5-yl)-2-(5-(trifluoromethyl)pyridin-2-yl)pyrazolidine-1-carboxamide], the “Activation” value on human CB2R [1] is given as “weak beta-arrestin activity”. Besides, in the data set with Male C57Bl6J mice, the “Distance moved / spontaneous locomotor activity” value is given as “does not affect spontaneous locomotor activity in mice”. The “Anti-inflammatory function in LPS model of systemic inflammation” value in data set [3] is recorded as “has anti-inflammatory activity; also recorded: displays anti-inflammatory function in a LPS model of systemic inflammation”. In addition, on human CB2R [2] (setting [5]), the “CB2 agonist character (in words)” value is on record as “potent agonists of CB2”. Also, the “Selectivity for CB2 over CB1 (in words)” value on human CB2R [2] (cAMP assays hCB1 vs hCB2) was “selective for CB2 over CB1”. Moreover, the “Anti-inflammatory function in the brain” value in data set [4] is “displays anti-inflammatory function in the brain”.
The compound `CC(C)(C)c1cc(NC(=O)N2CCCN2)on1` [Compound 31, N-(3-(tert-butyl)isoxazol-5-yl)pyrazolidine-1-carboxamide] yielded a melting point of 175 to 179 °C.
`O=C(Nc1cc(C2CC2)no1)N1CCCN1c1ccc(C(F)(F)F)cc1` [Compound 16, N-(3-cyclopropylisoxazol-5-yl)-2-(4-(trifluoromethyl)phenyl)pyrazolidine-1-carboxamide]: on human CB2R [1], the “Activation” value is “almost no beta-arrestin activity”. Also, on human CB2R [2] (setting [5]), the “CB2 agonist character (in words)” value is on record as “partial agonist of CB2”. The “Selectivity for CB2 over CB1 (in words)” value on human CB2R [2] (cAMP assays hCB1 vs hCB2) is “selective for CB2 over CB1”.
In the case of `CC(C)(C)c1cc(NC(=O)N2CCCN2c2cc(F)cc(F)c2)on1` [Compound 19, N-(3-(tert-butyl)isoxazol-5-yl)-2-(3,5-difluorophenyl)pyrazolidine-1-carboxamide], the melting point was 181 to 185 °C.
Still for that read-out and setting: the figure for `CC(C)(C)c1cc(NC(=O)N2CCCC2c2ccc(C(F)(F)F)cc2)no1` (stereo not drawn) [Compound 26, N-(5-(tert-butyl)isoxazol-3-yl)-2-(4-(trifluoromethyl)phenyl)pyrrolidine-1-carboxamide] is 175 to 179 °C.
On the same count and under the same terms, the figure for `CC(C)(C)c1cc(NC(=O)N2CCC(=O)N2c2ccc(C(F)(F)F)cc2)on1` [Compound 29, N-(3-(tert-butyl)isoxazol-5-yl)-3-oxo-2-(4-(trifluoromethyl)phenyl)pyrazolidine-1-carboxamide] is 186 to 190 °C.
Same read-out and setting: the figure for `CN1CCN(c2nccc3c2nc(-c2ccccc2Cl)n3C2CCOCC2)CC1` [Compound 1, 2-(2-chlorophenyl)-4-(4-methylpiperazin-1-yl)-1-(tetrahydro-2H-pyran-4-yl)-1H-imidazo[4,5-c]pyridine] is 231 to 235 °C.

The values are drawn from patent publication US20240158384A1, “CB2 RECEPTOR AGONISTS” (The Board of Trustees of the Leland Stanford Junior …, priority 2020, published 2024).
